Experimental data: patent publication US20180050993A1, “NOVEL FLUORINATED DERIVATIVES AS EGFR INHIBITORS USEFUL FOR TREATING CANCERS” (Trillium Therapeutics Inc., priority 2015, published 2018)
Structures can show the parent of a compound that is named as a salt. Where two headings read alike, the source gives them in different places.

Columns and labels:
[1] = Mouse liver microsomal stability; format: in vitro ADME; conditions: stability in pooled mouse (CD-1, male) liver microsomes 0.5 mg/ml, compound 1 μM, parent compound by LC/MS, in % (unit assumed)
Protocol: (§1) Working stocks were initially diluted to a concentration of 40.0 μM in 0.1 M potassium phosphate buffer before addition to the reaction vials. Pooled mouse (CD-1, male) or human (50 donors) liver microsomes were utilized at a final concentration of 0.5 mg/ml. Duplicate wells were used for each time point (0 and 30 minutes). Reactions were carried out at 37° C. in a shaker, and the final concentration of DMSO was kept constant at 0.01%. The final volume for each reaction was 100 μL, which includes the addition of an NADPH-Regeneration solution (NRS) mix. This NRS mix is comprised of glucose 6-phosphate dehydrogenase (0.4 U/mL), NADP+ (1.3 mM), MgCl2 (3.3 mM), and glucose 6-phosphate (3.3 mM) in assay mixtures. Upon completion of the 30 minute time point, reactions were terminated by the addition of 1.5-volumes (150 μL) of ice-cold, acetonitrile with 0.5% formic acid and internal standard. Samples were then centrifuged at 4,000 rpm for 10 minutes to remove debris and precipitated protein. Approximately 150 μL of supernatant was subsequently transferred to a new 96 well microplate for LC/MS analysis.
(§2) Narrow-window mass extraction LC/MS analysis was performed for all samples using a Waters Xevo quadrupole time-of-flight (QTof) mass spectrometer and an ACQUITY UPLC system, to determine relative peak areas of parent compound.
(§3) Human and mouse liver microsomes contain a wide variety of drug metabolizing enzymes and are commonly used to support in vitro ADME (absorption, distribution, metabolism and excretion) studies. These microsomes are used to examine the potential first-pass metabolism by-products of orally administered drugs. Representative compounds of the application were evaluated for their stability in human and mouse liver microsomes.

[2] = Human liver microsomal stability; format: in vitro ADME; conditions: stability in pooled human (50 donors) liver microsomes 0.5 mg/ml, compound 1 μM, parent compound by LC/MS
Protocol: as §1, §2, §3

[3] = biological target: T1, EGFR (Homo sapiens, UniProt P00533); test: Kinase HotSpot profiling (Reaction Biology), 33P-ATP filter-binding; format: biochemical; conditions: WT EGFR
T1 construct: purchased Reaction Biology
Protocol: (§4) Base Reaction buffer; 20 mM Hepes (pH 7.5), 10 mM MgCl2, 1 mM EGTA, 0.02% Brij35, 0.02 mg/ml BSA, 0.1 mM Na3VO4, 2 mM DTT, 1% DMSO
(§5) *Required cofactors are added individually to each kinase reaction
(§6) 1. The indicated substrate was prepared in fresh Base Reaction Buffer.
(§7) 2. Any required cofactors were added to the substrate solution above.
(§8) 3. Indicated kinase was added into the substrate solution and gently mixed.
(§9) 4. Compounds in DMSO were added into the kinase reaction mixture by Acoustic technology (Echo550; nanoliter range) and incubated for 20 minutes at room temperature.
(§10) 5. 33P-ATP (specific activity 10 μCi/μl) was added into the reaction mixture to initiate the reaction.
(§11) 6. The kinase reaction was incubated for 2 hours at room temperature
(§12) 7. Reactions were spotted onto P81 ion exchange paper.
(§13) 8. Kinase activity was detected by filter-binding method.
(§14) Representative compounds of Formula I were evaluated against WT EGFR and mutant EGFR (L858R and L858R, T790M) kinases. IC50 concentrations are illustrated in Table 9.

[4] = biological target: T2, EGFR (L858R) (Homo sapiens, UniProt P00533, L858R); test: as above; format: biochemical; conditions: mutant EGFR L858R
T2 construct: purchased Reaction Biology
Protocol: as §4, §5, §6, §7, §8, §9, §10, §11, §12, §13, §14

[5] = biological target: T3, P-gp (Homo sapiens, UniProt P08183); test: Evaluation of P-gp efflux in Caco-2 cell monolayers; format: in vitro ADME;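 further: Caco-2 monolayers dosed apically or basolaterally with test compound at 5 µM in HBSS with HEPES and glucose, 37 °C, donor and receiver sampled after 120 min, LC/MS peak areas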
T3 construct: host or cells: Caco-2 (C2BBe1)

[6] = Brain concentrations after PO administration in rat, peak at 8 hours (Table 5); format: in vivo; conditions: brain, PO 50 mg/kg, Table 5 (8 hours)
[7] = Caco-2, pH 7.4, with none (verapamil 0 μM), Caco-2, Verapamil 0 μM, read-out: Recovery (%) AP-BL
[8] = Caco-2, pH 7.4, with none (verapamil 0 μM), Caco-2, Verapamil 0 μM, read-out: Recovery (%) BL-AP
[9] = Caco-2, pH 7.4, with verapamil 100 μM, Caco-2, Verapamil 100 μM, read-out: Recovery (%) AP-BL
[10] = Caco-2, pH 7.4, with verapamil 100 μM, Caco-2, Verapamil 100 μM, read-out: Recovery (%) BL-AP

T3 sequence (P08183 whole entry): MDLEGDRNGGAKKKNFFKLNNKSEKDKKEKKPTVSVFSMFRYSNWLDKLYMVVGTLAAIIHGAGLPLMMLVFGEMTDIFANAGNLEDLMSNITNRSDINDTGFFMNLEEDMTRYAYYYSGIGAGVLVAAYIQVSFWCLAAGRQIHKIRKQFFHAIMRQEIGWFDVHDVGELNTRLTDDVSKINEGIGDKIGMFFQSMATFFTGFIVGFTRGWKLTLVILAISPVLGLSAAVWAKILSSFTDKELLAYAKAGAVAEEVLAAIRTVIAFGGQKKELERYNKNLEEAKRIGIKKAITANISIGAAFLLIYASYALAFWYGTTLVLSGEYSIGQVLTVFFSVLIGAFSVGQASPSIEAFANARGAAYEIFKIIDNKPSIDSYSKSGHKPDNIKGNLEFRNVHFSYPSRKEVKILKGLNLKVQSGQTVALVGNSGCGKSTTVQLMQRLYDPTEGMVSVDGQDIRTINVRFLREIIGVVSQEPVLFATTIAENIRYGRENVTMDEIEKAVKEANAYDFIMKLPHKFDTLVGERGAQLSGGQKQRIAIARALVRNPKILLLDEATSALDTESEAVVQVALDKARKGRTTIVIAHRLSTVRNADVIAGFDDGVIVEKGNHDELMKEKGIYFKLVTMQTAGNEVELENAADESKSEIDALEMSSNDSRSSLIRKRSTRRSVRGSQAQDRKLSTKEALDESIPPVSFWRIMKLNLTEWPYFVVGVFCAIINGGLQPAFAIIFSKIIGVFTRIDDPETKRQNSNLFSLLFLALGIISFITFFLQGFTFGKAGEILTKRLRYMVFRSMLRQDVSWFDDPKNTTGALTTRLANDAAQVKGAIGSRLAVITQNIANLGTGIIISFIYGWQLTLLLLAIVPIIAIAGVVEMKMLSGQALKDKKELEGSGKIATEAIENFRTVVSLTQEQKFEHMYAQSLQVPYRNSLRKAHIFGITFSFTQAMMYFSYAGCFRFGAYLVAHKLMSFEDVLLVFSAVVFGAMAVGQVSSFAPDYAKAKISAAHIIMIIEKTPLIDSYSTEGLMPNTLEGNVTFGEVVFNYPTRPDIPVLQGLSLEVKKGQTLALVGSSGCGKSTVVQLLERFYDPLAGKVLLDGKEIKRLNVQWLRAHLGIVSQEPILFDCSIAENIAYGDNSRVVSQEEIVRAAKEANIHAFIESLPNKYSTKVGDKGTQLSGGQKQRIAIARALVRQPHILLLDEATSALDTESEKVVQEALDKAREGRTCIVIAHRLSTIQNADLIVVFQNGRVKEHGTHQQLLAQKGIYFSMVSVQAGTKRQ
T1 sequence (P00533 25-1210): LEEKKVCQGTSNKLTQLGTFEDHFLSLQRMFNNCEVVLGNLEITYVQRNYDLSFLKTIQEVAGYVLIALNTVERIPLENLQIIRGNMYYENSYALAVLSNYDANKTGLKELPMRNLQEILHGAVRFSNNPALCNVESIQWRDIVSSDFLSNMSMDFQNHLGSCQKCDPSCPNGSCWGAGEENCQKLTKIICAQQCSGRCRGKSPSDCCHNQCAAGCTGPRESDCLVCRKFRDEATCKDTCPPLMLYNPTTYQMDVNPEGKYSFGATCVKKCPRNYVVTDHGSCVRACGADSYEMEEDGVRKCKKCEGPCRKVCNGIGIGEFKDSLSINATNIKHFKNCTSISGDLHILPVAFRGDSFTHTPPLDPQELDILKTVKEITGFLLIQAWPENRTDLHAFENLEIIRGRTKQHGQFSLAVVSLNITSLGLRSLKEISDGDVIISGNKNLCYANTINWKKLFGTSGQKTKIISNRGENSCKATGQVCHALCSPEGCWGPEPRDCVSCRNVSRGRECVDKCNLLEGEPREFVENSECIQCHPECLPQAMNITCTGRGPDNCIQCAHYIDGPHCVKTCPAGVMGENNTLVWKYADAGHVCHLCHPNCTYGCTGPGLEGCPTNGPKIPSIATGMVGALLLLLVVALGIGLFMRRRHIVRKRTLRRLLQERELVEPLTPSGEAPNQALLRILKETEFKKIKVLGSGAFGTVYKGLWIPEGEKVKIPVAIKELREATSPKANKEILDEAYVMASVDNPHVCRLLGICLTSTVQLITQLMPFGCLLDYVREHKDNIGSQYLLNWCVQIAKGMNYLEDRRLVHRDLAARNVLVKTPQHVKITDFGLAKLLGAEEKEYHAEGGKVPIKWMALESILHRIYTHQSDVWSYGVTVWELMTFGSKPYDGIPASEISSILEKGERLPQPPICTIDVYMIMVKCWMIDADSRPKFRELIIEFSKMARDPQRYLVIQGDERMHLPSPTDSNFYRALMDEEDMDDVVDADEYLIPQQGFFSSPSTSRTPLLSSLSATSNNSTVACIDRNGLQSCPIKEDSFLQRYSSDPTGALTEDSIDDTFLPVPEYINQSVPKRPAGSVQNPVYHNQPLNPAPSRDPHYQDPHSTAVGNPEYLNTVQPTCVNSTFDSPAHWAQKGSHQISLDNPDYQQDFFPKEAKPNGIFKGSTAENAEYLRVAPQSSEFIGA
T2 sequence (P00533 25-1210 L858R): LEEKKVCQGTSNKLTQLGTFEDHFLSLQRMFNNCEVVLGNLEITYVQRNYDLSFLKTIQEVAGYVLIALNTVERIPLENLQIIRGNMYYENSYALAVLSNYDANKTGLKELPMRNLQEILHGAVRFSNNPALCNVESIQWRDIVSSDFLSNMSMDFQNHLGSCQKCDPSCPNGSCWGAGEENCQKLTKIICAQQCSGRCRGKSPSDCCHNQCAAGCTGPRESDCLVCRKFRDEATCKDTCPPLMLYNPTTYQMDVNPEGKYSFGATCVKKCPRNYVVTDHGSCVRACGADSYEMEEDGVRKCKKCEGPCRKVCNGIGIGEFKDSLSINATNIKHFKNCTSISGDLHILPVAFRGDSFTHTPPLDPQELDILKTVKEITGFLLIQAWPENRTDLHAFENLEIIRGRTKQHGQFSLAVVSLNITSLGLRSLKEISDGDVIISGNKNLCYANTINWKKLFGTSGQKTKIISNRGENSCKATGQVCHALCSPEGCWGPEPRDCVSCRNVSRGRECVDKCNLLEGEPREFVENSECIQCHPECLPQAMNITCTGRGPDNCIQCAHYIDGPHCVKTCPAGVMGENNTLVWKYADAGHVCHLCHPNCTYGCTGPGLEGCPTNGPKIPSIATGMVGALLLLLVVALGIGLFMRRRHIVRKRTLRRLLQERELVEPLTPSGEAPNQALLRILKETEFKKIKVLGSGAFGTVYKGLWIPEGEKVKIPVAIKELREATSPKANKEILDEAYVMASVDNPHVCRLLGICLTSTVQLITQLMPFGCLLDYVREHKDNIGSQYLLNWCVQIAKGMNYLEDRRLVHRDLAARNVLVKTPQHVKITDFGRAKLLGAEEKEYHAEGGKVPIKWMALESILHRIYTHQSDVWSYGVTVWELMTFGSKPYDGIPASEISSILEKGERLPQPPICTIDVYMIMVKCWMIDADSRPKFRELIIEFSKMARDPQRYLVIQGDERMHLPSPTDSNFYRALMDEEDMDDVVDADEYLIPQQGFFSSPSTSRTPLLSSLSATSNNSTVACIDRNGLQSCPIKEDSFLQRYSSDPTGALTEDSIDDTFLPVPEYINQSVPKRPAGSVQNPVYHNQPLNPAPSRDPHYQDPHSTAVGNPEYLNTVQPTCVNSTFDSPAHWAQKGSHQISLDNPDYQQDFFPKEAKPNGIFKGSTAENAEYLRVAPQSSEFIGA

## FC(F)OCCOc1cc2ncnc(Nc3ccccc3Cl)c2cc1OCCOC(F)F [2(Dd)]
[1]
  MLM (30 min): 22.2
[2]
  HLM (30 min): 54.7%

## Fc1c(Nc2ncnc3cc(OCCOC(F)F)c(OCCOC(F)F)cc23)ccc(Cl)c1Cl [2(a), N-(3,4-dichloro-2-fluoro-phenyl)-6,7-bis[2 (difluoromethoxy)ethoxy]quinazolin-4-amine]
[1]
  MLM (30 min): 72.5
[2]
  HLM (30 min): 90.7%

## COc1cc2ncnc(Nc3ccc(F)c(Cl)c3F)c2cc1OC(=O)N1CCC(OC(F)F)CC1 [2(Oo), [4-(3-chloro-2,4-difluoro-anilino)-7-methoxy-quinazolin-6-yl] 4-(difluoromethoxy)piperidine-1-carboxylate]
[3]
  IC50: 0.0205 nM
[4]
  IC50: 0.052 nM

## COc1cc2ncnc(Nc3ccc(F)c(Cl)c3F)c2cc1OCCOC(F)F [2(k), N-(3-chloro-2,4-difluoro-phenyl)-6-[2-(difluoromethoxy)ethoxy]-7-methoxy-quinazolin-4-amine]
[1]
  MLM (30 min): 0.7
[2]
  HLM (30 min): 60.4%

## COc1cc2ncnc(Nc3cccc(Cl)c3F)c2cc1OCCOC(F)F [2(i), N-(3-chloro-2-fluoro-phenyl)-6-[2-(difluoromethoxy)ethoxy]-7-methoxy-quinazolin-4-amine]
[1]
  MLM (30 min): 1.5
[2]
  HLM (30 min): 19.7%

## Fc1c(Cl)cccc1Nc1ncnc2cc(OCCOC(F)F)c(OCCOC(F)F)cc12 [2(Ff), N-(3-chloro-2-fluoro-phenyl)-6,7-bis[2-(difluoromethoxy)ethoxy]quinazolin-4-amine]
[1]
  MLM (30 min): 69.6
[2]
  HLM (30 min): 76.4%

## C#Cc1cccc(Nc2ncnc3cc(OCCOC(F)F)c(OCCOC(F)F)cc23)c1 [2(b), 6,7-bis[2-(difluoromethoxy)ethoxy]-N-(3-ethynylphenyl)quinazolin-4-amine]
[1]
  MLM (30 min): 94.3
[2]
  HLM (30 min): 96.4%

## COc1cc2ncnc(Nc3ccc(F)c(Cl)c3F)c2cc1NC(=O)N1CCC(COC(F)F)CC1 [3(A), N-[4-(3-chloro-2,4-difluoro-anilino)-7-methoxy-quinazolin-6-yl]-4-(difluoromethoxymethyl)piperidine-1-carboxamide]
[3]
  IC50: 0.0298 nM
[4]
  IC50: 0.0891 nM

## FC(F)OCCOc1cc2ncnc(Nc3ccc(C(F)(F)F)cc3)c2cc1OCCOC(F)F [2(Gg), 6,7-bis[2-(difluoromethoxy)ethoxy]-N-[4-(trifluoromethyl)phenyl]quinazolin-4-amine]
[1]
  MLM (30 min): 106.2
[2]
  HLM (30 min): 99.8%

## Fc1cc(Cl)ccc1Nc1ncnc2cc(OCCOC(F)F)c(OCCOC(F)F)cc12 [2(e), N-(4-chloro-2-fluoro-phenyl)-6,7-bis[2-(difluoromethoxy)ethoxy]quinazolin-4-amine]
[1]
  MLM (30 min): 67.8
[2]
  HLM (30 min): 89.6%

## Fc1ccc(Nc2ncnc3cc(OCCOC(F)F)c(OCCOC(F)F)cc23)c(F)c1Cl [2(d), N-(3-chloro-2,4-difluoro-phenyl)-6,7-bis[2-(difluoromethoxy)ethoxy]quinazolin-4-amine]
[1]
  MLM (30 min): 90.4
[2]
  HLM (30 min): 83.1%

## COc1cc2ncnc(Nc3ccc(F)c(Cl)c3F)c2cc1NC(=O)N1CC(OC(F)F)C1 [3(B), N-[4-(3-chloro-2,4-difluoro-anilino)-7-methoxy-quinazolin-6-yl]-3-(difluoromethoxy)azetidine-1-carboxamide]
[3]
  IC50: 0.0125 nM
[4]
  IC50: 0.0138 nM

## Fc1cc(F)c(Nc2ncnc3cc(OCCOC(F)F)c(OCCOC(F)F)cc23)c(F)c1 [2(Ll), 6,7-bis[2-(difluoromethoxy)ethoxy]-N-(2,4,6-trifluorophenyl)quinazolin-4-amine]
[1]
  MLM (30 min): 39.3
[2]
  HLM (30 min): 82.1%

## Fc1ccccc1Nc1ncnc2cc(OCCOC(F)F)c(OCCOC(F)F)cc12 [2(Hh), 6,7-bis[2-(difluoromethoxy)ethoxy]-N-(2-fluorophenyl)quinazolin-4-amine]
[1]
  MLM (30 min): 51.8
[2]
  HLM (30 min): 71.6%

## CC(C)NCC(O)COc1cccc2ccccc12 (centres unmarked) [Propranolol]
[5]; [7]
  recovery at 120 min, 5 μM: 69.8%
[5]; [8]
  recovery at 120 min, 5 μM: 85%
[5]; pH 7.4, Caco-2, Verapamil 0 μM
  Papp A→B at 120 min, 5 μM: 25.1 ×10⁻⁶ cm/s
  Papp B→A at 120 min, 5 μM: 16.3 ×10⁻⁶ cm/s
  efflux ratio at 120 min, 5 µM: 0.65

## FC(F)OCCOc1cc2ncnc(Nc3ccccc3C(F)(F)F)c2cc1OCCOC(F)F [2(Ee), 6,7-bis[2-(difluoromethoxy)ethoxy]-N-[2-(trifluoromethyl)phenyl]quinazolin-4-amine]
[1]
  MLM (30 min): 11.8
[2]
  HLM (30 min): 49.2%

## COc1cc2ncnc(Nc3ccc(F)c(Cl)c3F)c2cc1OC(=O)N1CCC[C@H](OC(F)F)C1 [2(Pp), [4-(3-chloro-2,4-difluoro-anilino)-7-methoxy-quinazolin-6-yl] (3S)-3-(difluoromethoxy)piperidine-1-carboxylate]
[3]
  IC50: 0.143 nM
[4]
  IC50: 0.345 nM

## C#Cc1cccc(Nc2ncnc3cc(OCCOC)c(OCCOC)cc23)c1 [Erlotinib•HCl, N-(3-ethynylphenyl)-6,7-bis(2-methoxyethoxy)quinazolin-4-amine]
[6]; Sprague-Dawley
  Cmax: 828 ng/g
  Tmax: 8 h
[6]
  AUCInf: 18449 ng·h/g
  AUClast: 14522 ng·h/g
[5]; [7]
  recovery at 120 min, 5 μM: 55.5%
[5]; [8]
  recovery at 120 min, 5 μM: 56.2%
[5]; [9]
  recovery at 120 min, 5 μM: 76.8%
[5]; [10]
  recovery at 120 min, 5 μM: 58%
[5]; pH 7.4, Caco-2, Verapamil 0 μM
  Papp A→B at 120 min, 5 μM: 16 ×10⁻⁶ cm/s
  Papp B→A at 120 min, 5 μM: 13.9 ×10⁻⁶ cm/s

## C#Cc1cccc(Nc2ncnc3cc(OCCOC(F)F)c(OCCOC(F)F)cc23)c1F [2(Nn)]
[3]
  IC50: 0.587 nM
[4]
  IC50: 0.977 nM

## C[C@H]1O[C@@H](O[C@H]2[C@@H](O)C[C@H](O[C@H]3[C@@H](O)C[C@H](O[C@H]4CC[C@@]5(C)[C@H](CC[C@@H]6[C@@H]5C[C@@H](O)[C@]5(C)[C@@H](C7=CC(=O)OC7)CC[C@]65O)C4)O[C@@H]3C)O[C@@H]2C)C[C@H](O)[C@@H]1O [Digoxin]
[5]; [7]
  recovery at 120 min, 5 μM: 76.9%
[5]; [8]
  recovery at 120 min, 5 μM: 84.3%
[5]; [9]
  recovery at 120 min, 5 μM: 90.3%
[5]; [10]
  recovery at 120 min, 5 μM: 99.7%
[5]; pH 7.4, Caco-2, Verapamil 0 μM
  Papp A→B at 120 min, 5 μM: 0.64 ×10⁻⁶ cm/s
  Papp B→A at 120 min, 5 μM: 15.8 ×10⁻⁶ cm/s

## Fc1ccc(Nc2ncnc3cc(OCCOC(F)F)c(OCCOC(F)F)cc23)cc1Cl [2(c), N-(3-chloro-4-fluoro-phenyl)-6,7-bis[2-(difluoromethoxy)ethoxy]quinazolin-4-amine]
[1]
  MLM (30 min): 94.6
[2]
  HLM (30 min): 88.5%

## Fc1cccc(F)c1Nc1ncnc2cc(OCCOC(F)F)c(OCCOC(F)F)cc12 [2(Kk), 6,7-bis[2-(difluoromethoxy)ethoxy]-N-(2,6-difluorophenyl)quinazolin-4-amine]
[1]
  MLM (30 min): 43.7
[2]
  HLM (30 min): 77.6%
